From PubChem BioAssay (NCI) come the findings set out here.

Some test systems named below: A498 renal; NCI-H226 lung; SF-539 CNS; ACHN renal; OVCAR-3 ovarian; TK-10 renal; MDA-MB-435; NCI-H23 lung; SK-MEL-28 melanoma; A549 NSCLC.
Assay in all cases: inhibition of tumour cell growth, NCI panel, 48 h

Where “and” joins values, the source holds several entries; their conditions need not be identical. Identical values can stand only once.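 Growth conditions: 96-well plates. Treatment: test compound, 48 hours, 5 concentrations. Analysis: linear interpolation between bracketing concentrations; unreached endpoints set to highest concentration. GI50 marks 50% less growth. TGI: concentration producing complete growth inhibition.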

Turning to `S=C(N/N=C(/c1ccccc1)c1ccccn1)N1CCCCC1`, the GI50 is 0.0815 µM in the experiment with A498 renal; 0.00148 µM in the experiment on NCI-H226 lung; 0.265 µM with SF-539 CNS; less than 0.001 µM with ACHN renal; less than 0.001 µM with OVCAR-3 ovarian; 1.08 µM in the experiment with SK-MEL-28 melanoma. In addition, in the experiment on A549 NSCLC, the GI50 is 0.00361 µM. Moreover, the TGI in the experiment with A498 renal was 1.43 µM and 2.37 µM; with SF-539 CNS, 1.85 µM and 2.09 µM; in the experiment on ACHN renal, 1.49 µM and 1.46 µM; in the experiment on OVCAR-3 ovarian, 1.88 µM and 1.39 µM; with TK-10 renal, 1.97 µM; with MDA-MB-435 it was 1.98 µM and 1.85 µM. The TGI is 1.74 µM with NCI-H23 lung; 2.55 µM and 2.82 µM with SK-MEL-28 melanoma; 1.71 µM and 3.88 µM in the experiment with A549 NSCLC.

For `Oc1ccc(CN2CCC(N3CCOCC3)CC2)c2cccnc12`, the GI50 in the experiment with A498 renal is greater than 100 µM; with NCI-H226 lung, 41.4 µM; in the experiment with SF-539 CNS, 24.2 µM; with ACHN renal, 25.1 µM; with OVCAR-3 ovarian, 31.5 µM; in the experiment with TK-10 renal it was 62.4 µM. Besides, the GI50 in the experiment on MDA-MB-435 is 36.2 µM; in the experiment on NCI-H23 lung, 35 µM; with SK-MEL-28 melanoma, 37.6 µM; in the experiment on A549 NSCLC it was greater than 100 µM. In addition, the TGI with A498 renal, in the experiment with NCI-H226 lung, with SF-539 CNS, in the experiment on ACHN renal, in the experiment on OVCAR-3 ovarian and with TK-10 renal was greater than 100 µM throughout. In addition, the TGI with MDA-MB-435, in the experiment with NCI-H23 lung, in the experiment with SK-MEL-28 melanoma and in the experiment on A549 NSCLC was greater than 100 µM throughout.

For the compound `COc1cc2cc(C(=O)CCC(=O)O)sc2cc1OC`, the GI50 was 18.7 µM in the experiment with A498 renal; 47.4 µM in the experiment with NCI-H226 lung; 16.5 µM in the experiment with SF-539 CNS; greater than 100 µM in the experiment on ACHN renal; greater than 100 µM in the experiment with OVCAR-3 ovarian; greater than 100 µM with TK-10 renal. The GI50 with MDA-MB-435, in the experiment on NCI-H23 lung, in the experiment on SK-MEL-28 melanoma and with A549 NSCLC was greater than 100 µM each time. For the same compound, the TGI was 45.4 µM with A498 renal; greater than 100 µM with NCI-H226 lung; greater than 100 µM in the experiment with SF-539 CNS; greater than 100 µM in the experiment on ACHN renal; greater than 100 µM with OVCAR-3 ovarian; greater than 100 µM with TK-10 renal. Moreover, the TGI in the experiment with MDA-MB-435, in the experiment with NCI-H23 lung, in the experiment on SK-MEL-28 melanoma and with A549 NSCLC was greater than 100 µM in each case.

`O=S(=O)(Cc1ccc(Cl)cc1Cl)c1ccc(Cl)cc1`: the GI50 is 0.317 µM in the experiment on A498 renal; 4.52 µM in the experiment on NCI-H226 lung; 0.47 µM in the experiment with SF-539 CNS; 1.04 µM with ACHN renal; 0.346 µM in the experiment on OVCAR-3 ovarian; 1.01 µM with TK-10 renal. The GI50 in the experiment with MDA-MB-435 was 0.13 µM; in the experiment with NCI-H23 lung, 0.878 µM; in the experiment with SK-MEL-28 melanoma, 1.97 µM; with A549 NSCLC it was 0.693 µM. Besides, the TGI in the experiment on A498 renal was 16.3 µM; in the experiment with NCI-H226 lung, greater than 100 µM; in the experiment with SF-539 CNS, 3.72 µM; in the experiment on ACHN renal, greater than 100 µM; in the experiment on OVCAR-3 ovarian, 1.8 µM; in the experiment on TK-10 renal, greater than 53.9 µM. For the same compound, the TGI was 0.671 µM with MDA-MB-435, greater than 100 µM in the experiment on NCI-H23 lung, greater than 100 µM with SK-MEL-28 melanoma and greater than 100 µM in the experiment with A549 NSCLC.

With `COC(=O)C1=C(C)NC(C)=C(C(=O)OC)C1/C=C(\Cl)c1ccc(Cl)c(Cl)c1`, the GI50 is 11.4 µM in the experiment on A498 renal; 15.8 µM with NCI-H226 lung; 17.1 µM in the experiment with SF-539 CNS; 12.8 µM in the experiment on ACHN renal; 12.8 µM with OVCAR-3 ovarian; 14.8 µM in the experiment with TK-10 renal. Besides, the GI50 with MDA-MB-435 is 15.1 µM; in the experiment with NCI-H23 lung, 16.8 µM; in the experiment with SK-MEL-28 melanoma, 13.2 µM; in the experiment on A549 NSCLC it was 11.9 µM. Also, the TGI in the experiment on A498 renal stood at 24.1 µM; in the experiment on NCI-H226 lung it was 38.2 µM; with SF-539 CNS, 33 µM; in the experiment with ACHN renal, 25.5 µM; in the experiment with OVCAR-3 ovarian, 26.3 µM; with TK-10 renal, 30.3 µM. Further, the TGI amounted to 32.1 µM in the experiment with MDA-MB-435, 31 µM in the experiment with NCI-H23 lung, 27.7 µM in the experiment with SK-MEL-28 melanoma and 24.4 µM in the experiment on A549 NSCLC.

As for `O=c1c2c3c(sc2n2c(-c4cc(-c5ccccc5)no4)nnc2n1Cc1ccccc1)CCCC3`, the GI50 in the experiment on A498 renal is 36.5 µM; in the experiment with NCI-H226 lung, 20 µM; in the experiment with SF-539 CNS it was 19.2 µM; with ACHN renal, 9.32 µM; in the experiment with OVCAR-3 ovarian, 8.61 µM; in the experiment on TK-10 renal, 21.5 µM. Also, the GI50 in the experiment on MDA-MB-435 is 24.1 µM; in the experiment with NCI-H23 lung, 36.6 µM; in the experiment on SK-MEL-28 melanoma it was 22.9 µM; in the experiment with A549 NSCLC it was 10.5 µM. The TGI in the experiment with A498 renal was greater than 100 µM; in the experiment with NCI-H226 lung, 58.3 µM; in the experiment with SF-539 CNS it was 72.2 µM; in the experiment on ACHN renal, greater than 100 µM; in the experiment on OVCAR-3 ovarian it was 30.5 µM; with TK-10 renal, greater than 82.8 µM. The TGI in the experiment with MDA-MB-435 is greater than 91.9 µM; with NCI-H23 lung it was greater than 100 µM; in the experiment with SK-MEL-28 melanoma, 76 µM; with A549 NSCLC it was greater than 86.5 µM.

Consider `O=c1ccc(N=Nc2ccc([N+](=O)[O-])cc2)ccc1O`, for which the GI50 with A498 renal was greater than 100 µM; in the experiment with NCI-H226 lung, 12.7 µM; with SF-539 CNS, 4.38 µM; in the experiment with ACHN renal, 7.07 µM; with OVCAR-3 ovarian it was 3.33 µM; in the experiment on TK-10 renal it was 20 µM. For the same compound, the GI50 with MDA-MB-435 was 9.14 µM; with NCI-H23 lung, 6.37 µM; in the experiment with SK-MEL-28 melanoma, 8.65 µM; with A549 NSCLC it was 6.8 µM. Besides, the TGI is greater than 100 µM in the experiment with A498 renal; greater than 100 µM with NCI-H226 lung; greater than 100 µM with SF-539 CNS; greater than 100 µM with ACHN renal; 25.8 µM in the experiment with OVCAR-3 ovarian; greater than 100 µM in the experiment with TK-10 renal. Also, the TGI in the experiment with MDA-MB-435, in the experiment with NCI-H23 lung, with SK-MEL-28 melanoma and in the experiment on A549 NSCLC was greater than 100 µM throughout.

Regarding `CCC[CH2][Sn]([CH2]CCC)([O]C(=O)c1cc(F)ccc1F)[O][Sn]([CH2]CCC)([CH2]CCC)[O]C(=O)c1cc(F)ccc1F`, the GI50 is 0.238 µM in the experiment with A498 renal; 0.354 µM in the experiment on NCI-H226 lung; 0.386 µM with SF-539 CNS; 0.251 µM in the experiment with ACHN renal; 0.512 µM in the experiment on OVCAR-3 ovarian; 0.226 µM in the experiment with TK-10 renal. The GI50 in the experiment with MDA-MB-435 is 0.446 µM; in the experiment on NCI-H23 lung it was 0.0702 µM; in the experiment with SK-MEL-28 melanoma, 0.169 µM; in the experiment on A549 NSCLC it was 1.77 µM. Also, the TGI came out at 0.631 µM with A498 renal; 1.25 µM with NCI-H226 lung; 1.22 µM in the experiment on SF-539 CNS; 0.738 µM in the experiment on ACHN renal; 1.61 µM in the experiment on OVCAR-3 ovarian; 0.616 µM with TK-10 renal. The TGI in the experiment with MDA-MB-435 came out at 1.67 µM; with NCI-H23 lung, 0.311 µM; with SK-MEL-28 melanoma, 0.497 µM; in the experiment with A549 NSCLC, 3.68 µM.
